Experimental data: ChEMBL document CHEMBL3045663, “Synthesis and Activity of Novel Acaricidal/Insecticidal 2, 4-Diphenyl-1, 3-oxazolines” (J Pestic Sci, 2002)
In brackets after ≈: the same amount, converted by molar mass.

Experiments:
Format in all cases: functional
Nephotettix cincticeps = assay: Insecticidal activity against Nephotettix cincticeps (green rice leafhopper) in compound treated rice seedlings assessed as mortality at 500 ppm
Tetranychus urticae [1] = assay: Acaricidal activity against Tetranychus urticae (two-spotted spider mite) in compound treated kidney bean leaf assessed as mortality of egg at 1000 ppm at 24 degC measured after 1 week; conditions: 168 h
Myzus persicae = assay: Insecticidal activity against Myzus persicae (green peach aphid) in compound treated radish leaf assessed as mortality at 500 ppm
Plutella xylostella = assay: Insecticidal activity against Plutella xylostella (diamondback moth) in compound treated radish leaf assessed as mortality at 500 ppm
Tetranychus urticae [2] = assay: Acaricidal activity against Tetranychus urticae (two-spotted spider mite) in compound treated kidney bean leaf assessed as larvicidal activity

Compound	mortality at 500 ppm (Nephotettix cincticeps) [%]	mortality at 1000 ppm (Tetranychus urticae [1]) [%]	mortality at 500 ppm (Myzus persicae) [%]	mortality at 500 ppm (Plutella xylostella) [%]	LC50 (Tetranychus urticae [2]) [µg/mL]
FC(F)(F)c1ccccc1C1=NC(c2ccccc2)CO1 (configuration not stated)	0	0	10	35	100 (≈ 343 µM)
COc1cccc(C2=NC(c3ccccc3)CO2)c1 (configuration not stated)	0	0	0	0	> 1000
Fc1cccc(F)c1C1=NCC(c2ccccc2)S1 (configuration not stated)	0	0	0	0	100 (≈ 363 µM)
CCOc1ccccc1C1=NC(c2ccccc2)CO1 (configuration not stated)	0	0	0	0	> 1000
CSc1ccccc1C1=NC(c2ccccc2)CO1 (configuration not stated)	0	0	0	35	100 (≈ 371 µM)
Fc1cccc(F)c1-c1nc(-c2ccccc2)co1	10	0	0	0	100 (≈ 389 µM)
Clc1ccccc1C1=NC(c2ccccc2)CO1 (configuration not stated)	10	10	0	35	1 (≈ 3.88 µM)
CCOc1cc(Br)ccc1C1COC(c2c(F)cccc2F)=N1 (configuration not stated)	100	–	0	10	0.1 (≈ 0.262 µM)
Cc1ccc(C2COC(c3c(F)cccc3F)=N2)c(C)c1 (configuration not stated)	100	–	100	35	10 (≈ 34.8 µM)
CCCCCCCCCSc1ccc(C2COC(c3c(F)cccc3F)=N2)cc1 (configuration not stated)	0	–	60	85	0.01 (≈ 0.0239 µM)
C[S+]([O-])c1ccc(C2COC(c3c(F)cccc3F)=N2)cc1 (configuration not stated)	0	–	60	60	10 (≈ 31.1 µM)
CCCCCCCCCCc1ccc(C2COC(c3c(F)cccc3F)=N2)c(Cl)c1 (configuration not stated)	0	–	0	85	0.1 (≈ 0.23 µM)
CCCCCCCCc1ccc(C2COC(c3c(F)cccc3F)=N2)c(C)c1 (configuration not stated)	100	–	100	100	< 0.001
Fc1cccc(F)c1C1=NC(c2ccc(Cl)c(Cl)c2)CO1 (configuration not stated)	0	–	100	60	0.1 (≈ 0.305 µM)
CC(C)(C)c1ccc(C2COC(c3c(F)cccc3F)=N2)cc1 (configuration not stated)	60	–	100	0	< 0.001
Oc1ccc(C2COC(c3c(F)cccc3F)=N2)cc1 (configuration not stated)	60	–	0	10	10 (≈ 36.3 µM)
COc1cc(Cl)ccc1C1COC(c2c(F)cccc2F)=N1 (configuration not stated)	100	–	100	10	0.1 (≈ 0.309 µM)
Fc1cc(Cl)ccc1C1COC(c2c(F)cccc2F)=N1 (configuration not stated)	0	–	100	0	< 0.001
CCCCCCCCCCCCCOc1ccc(C2COC(c3c(F)cccc3F)=N2)cc1 (configuration not stated)	0	–	85	35	0.001 (≈ 0.00219 µM)
CCCCCCCCc1ccc(C2COC(c3c(F)cccc3F)=N2)c(F)c1 (configuration not stated)	0	–	100	100	< 0.001
Fc1ccc(C2COC(c3c(F)cccc3F)=N2)cc1Cl (configuration not stated)	10	–	100	60	0.1 (≈ 0.321 µM)
Cc1ccc(C2COC(c3c(F)cccc3F)=N2)cc1C (configuration not stated)	85	–	100	0	1 (≈ 3.48 µM)
Fc1ccc(C2COC(c3c(F)cccc3F)=N2)cc1F (configuration not stated)	0	–	0	0	0.1 (≈ 0.339 µM)
CCCCCCc1ccc(C2COC(c3c(F)cccc3F)=N2)c(F)c1 (configuration not stated)	60	–	100	100	< 0.001
COc1ccc(C2COC(c3c(F)cccc3F)=N2)cc1 (configuration not stated)	10	–	85	0	1 (≈ 3.46 µM)
CCCCCCCCc1ccc(C2COC(c3c(F)cccc3F)=N2)cc1 (configuration not stated)	0	–	100	85	< 0.001
CSc1ccc(C2COC(c3c(F)cccc3F)=N2)cc1 (configuration not stated)	0	–	100	0	0.1 (≈ 0.327 µM)
Fc1cccc(F)c1C1=NC(c2ccc(Br)cc2)CO1 (configuration not stated)	10	–	100	35	0.001 (≈ 0.00296 µM)

Compound	mortality at 500 ppm (Nephotettix cincticeps) [%]	mortality at 1000 ppm (Tetranychus urticae [1]) [%]	mortality at 500 ppm (Myzus persicae) [%]	mortality at 500 ppm (Plutella xylostella) [%]	LC50 (Tetranychus urticae [2]) [µg/mL]
Cc1cc(Cl)ccc1C1COC(c2c(F)cccc2F)=N1 (configuration not stated)	35	–	100	10	0.1 (≈ 0.325 µM)
CCCCOc1cc(F)ccc1C1COC(c2c(F)cccc2F)=N1 (configuration not stated)	100	–	60	85	< 0.001
CCCCCc1ccc(C2COC(c3c(F)cccc3F)=N2)c(OCCC)c1 (configuration not stated)	60	–	85	85	0.001 (≈ 0.00258 µM)
CCOc1cc(F)ccc1C1COC(c2c(F)cccc2F)=N1 (configuration not stated)	100	–	100	85	0.001 (≈ 0.00311 µM)
CCCCCCc1ccc(C2COC(c3c(F)cccc3F)=N2)cc1F (configuration not stated)	0	–	0	0	0.1 (≈ 0.277 µM)
CC(C)Cc1ccc(C2COC(c3c(F)cccc3F)=N2)c(Cl)c1 (configuration not stated)	60	–	100	100	< 0.001
Fc1cccc(F)c1C1=NC(c2ccc(OCC(F)(F)F)cc2)CO1 (configuration not stated)	100	–	100	35	< 0.001
COc1cc(F)ccc1C1COC(c2c(F)cccc2F)=N1 (configuration not stated)	100	–	100	10	0.1 (≈ 0.325 µM)
Fc1cccc(F)c1C1=NC(c2ccccc2Cl)CO1 (configuration not stated)	85	–	100	35	0.1 (≈ 0.34 µM)
Fc1cc(C2COC(c3c(F)cccc3F)=N2)ccc1Cl (configuration not stated)	60	–	100	35	0.01 (≈ 0.0321 µM)
CCCCCCc1ccc(C2COC(c3c(F)cccc3F)=N2)cc1 (configuration not stated)	0	–	100	10	< 0.001
CC(C)c1ccc(C2COC(c3c(F)cccc3F)=N2)cc1 (configuration not stated)	60	–	100	0	0.001 (≈ 0.00332 µM)
Fc1ccc(C2COC(c3c(F)cccc3F)=N2)c(Cl)c1 (configuration not stated)	35	–	100	0	0.1 (≈ 0.321 µM)
CCc1ccccc1C1COC(c2c(F)cccc2F)=N1 (configuration not stated)	60	–	0	0	1 (≈ 3.48 µM)
CCCCOc1ccc(C2COC(c3c(F)cccc3F)=N2)cc1 (configuration not stated)	0	–	100	0	< 0.001
CCCCc1ccc(C2COC(c3c(F)cccc3F)=N2)cc1 (configuration not stated)	10	–	100	0	< 0.001
Cc1ccc(C2COC(c3c(F)cccc3F)=N2)cc1 (configuration not stated)	60	–	100	0	0.1 (≈ 0.366 µM)
CCCOc1cc(C(C)(C)C)ccc1C1COC(c2c(F)cccc2F)=N1 (configuration not stated)	60	–	100	85	0.001 (≈ 0.00268 µM)
COc1cccc(C2COC(c3c(F)cccc3F)=N2)c1 (configuration not stated)	0	–	0	0	1 (≈ 3.46 µM)
CCCCCCCCCCc1ccc(C2COC(c3c(F)cccc3F)=N2)c(F)c1 (configuration not stated)	0	–	10	100	0.001 (≈ 0.0024 µM)
CCCCCCCCc1ccc(C2COC(c3c(F)cccc3F)=N2)c(OC)c1 (configuration not stated)	0	–	100	85	0.01 (≈ 0.0249 µM)
CCOc1cc(C(C)(C)C)ccc1C1COC(c2c(F)cccc2F)=N1 (configuration not stated) [ETOXAZOLE]	100	–	100	100	0.001 (≈ 0.00278 µM)
COc1cc(C(C)(C)C)ccc1C1COC(c2c(F)cccc2F)=N1 (configuration not stated)	35	–	100	85	0.001 (≈ 0.0029 µM)
CCCCCCCCCCCCCCCc1ccc(C2COC(c3c(F)cccc3F)=N2)cc1 (configuration not stated)	0	–	0	85	0.001 (≈ 0.00213 µM)
CCOc1ccc(C2COC(c3c(F)cccc3F)=N2)cc1 (configuration not stated)	0	–	100	35	0.001 (≈ 0.0033 µM)
CCOc1cccc(C2COC(c3c(F)cccc3F)=N2)c1 (configuration not stated)	0	–	0	0	1 (≈ 3.3 µM)
Fc1ccc(C2COC(c3c(F)cccc3F)=N2)cc1 (configuration not stated)	10	–	85	85	0.1 (≈ 0.361 µM)
